Some test systems named below: A549 NSCLC; CAKI-1 renal; COLO 205 colon; DMS 114 small cell lung; HOP-18 NSCLC; M14 melanoma; SK-OV-3 ovarian; U251 CNS; UACC-62 melanoma; MCF7 breast.
Experiment in all cases: NCI tumour cell line growth inhibition, 48 h

Molecules are shown by their SMILES. Values joined by “and” are separate entries in the source; they are usually repeats but may differ in a detail not shown here. Identical values can stand only once.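 Dose response: 5 concentrations. Exposure: 48 h. Format: 96-well plates. Endpoint: linear interpolation; highest concentration if not reached. GI50 = concentration required for 50% inhibition of growth. Definition used: TGI = concentration required for complete inhibition of growth.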

As for `O=C1CCCCC1S(=O)(=O)c1ccccc1` (stereo not given), the TGI with A549 NSCLC, in the experiment with CAKI-1 renal, in the experiment on COLO 205 colon, with DMS 114 small cell lung, with HOP-18 NSCLC and in the experiment on M14 melanoma was greater than 100 µM throughout. Moreover, the TGI with SK-OV-3 ovarian, in the experiment with U251 CNS and in the experiment with UACC-62 melanoma was greater than 100 µM each time.

For `C=Cc1cncc(C#N)c1CCc1c(C#N)cncc1C=C`, the GI50 with A549 NSCLC was greater than 100 µM; with CAKI-1 renal, greater than 10 µM; in the experiment on M14 melanoma, greater than 100 µM; in the experiment with U251 CNS, greater than 100 µM; with UACC-62 melanoma it was greater than 100 µM. Besides, the TGI was greater than 100 µM in the experiment with A549 NSCLC; greater than 100 µM with CAKI-1 renal; greater than 10 µM in the experiment with COLO 205 colon; greater than 10 µM in the experiment on DMS 114 small cell lung; greater than 10 µM in the experiment on HOP-18 NSCLC; greater than 100 µM with M14 melanoma. Besides, the results for the TGI in the experiment with SK-OV-3 ovarian, with U251 CNS and in the experiment with UACC-62 melanoma were greater than 10 µM, greater than 100 µM and greater than 100 µM, respectively.

With `C=C/C=C/NC(=O)OCc1ccccc1`, the TGI with A549 NSCLC, in the experiment with CAKI-1 renal, with COLO 205 colon, with DMS 114 small cell lung, with HOP-18 NSCLC and with M14 melanoma was greater than 100 µM each time. Also, the TGI with SK-OV-3 ovarian, with U251 CNS and in the experiment on UACC-62 melanoma was greater than 100 µM each time.

Regarding `OC(CCNC12CC3CC(CC(C3)C1)C2)c1ccccc1` (stereo not given), the TGI with A549 NSCLC, in the experiment on CAKI-1 renal, in the experiment with COLO 205 colon, with DMS 114 small cell lung, in the experiment on HOP-18 NSCLC and in the experiment with M14 melanoma was greater than 100 µM throughout. For the same molecule, the TGI with SK-OV-3 ovarian, in the experiment on U251 CNS and in the experiment with UACC-62 melanoma was greater than 100 µM throughout.

For the molecule `C=C1CC2OC(=O)C(=C)C2C(O)C2C(=C)CCC12` (stereo not given), the TGI in the experiment on A549 NSCLC was determined as 32.2 µM; with CAKI-1 renal it was 19.7 µM; in the experiment on COLO 205 colon it was 12.9 µM; in the experiment with DMS 114 small cell lung, 16.9 µM; with HOP-18 NSCLC, 29.3 µM; in the experiment with SK-OV-3 ovarian, 24.9 µM. The values for the TGI in the experiment with U251 CNS and in the experiment on UACC-62 melanoma were 30.8 µM and 12.8 µM, respectively.

Consider `CCOC(=O)CC[C@H](NC(=O)c1nc[nH]c1[N+](=O)[O-])C(=O)OCC`, for which the TGI in the experiment with A549 NSCLC, in the experiment with COLO 205 colon, in the experiment on DMS 114 small cell lung, in the experiment with HOP-18 NSCLC, in the experiment with M14 melanoma and in the experiment with SK-OV-3 ovarian was greater than 100 µM each time. For the same molecule, the TGI with U251 CNS and with UACC-62 melanoma was greater than 100 µM throughout.

Regarding `O=c1cnn(C2OC(CO)C(O)C2O)c(=S)[nH]1` (stereo not given), the TGI with A549 NSCLC, with CAKI-1 renal, in the experiment with COLO 205 colon, with DMS 114 small cell lung, in the experiment on HOP-18 NSCLC and with M14 melanoma was greater than 100 µM throughout. Also, the TGI with MCF7 breast, in the experiment with SK-OV-3 ovarian, in the experiment on U251 CNS and in the experiment on UACC-62 melanoma was greater than 100 µM each time.

Turning to `NC(=O)CN(CC(N)=O)C(N)=O`, the TGI in the experiment on A549 NSCLC, in the experiment on CAKI-1 renal, in the experiment on COLO 205 colon, in the experiment with DMS 114 small cell lung, with HOP-18 NSCLC and in the experiment on M14 melanoma was greater than 100 µM each time. In addition, the TGI in the experiment on SK-OV-3 ovarian, in the experiment on U251 CNS and in the experiment with UACC-62 melanoma was greater than 100 µM in each case.

As to `C[C@@]12CCC(=O)c3coc(c31)C(=O)c1cc3c(cc12)C(=O)C=CC3=O`, the GI50 in the experiment with A549 NSCLC, in the experiment with CAKI-1 renal, in the experiment with COLO 205 colon, in the experiment with DMS 114 small cell lung, in the experiment on HOP-18 NSCLC and with M14 melanoma was greater than 1 µM in each case. In addition, the GI50 with SK-OV-3 ovarian, in the experiment with U251 CNS and in the experiment on UACC-62 melanoma was greater than 1 µM in each case. Besides, the TGI in the experiment with A549 NSCLC is greater than 100 µM; in the experiment with CAKI-1 renal, > 1 µM and 38.4 µM; in the experiment on COLO 205 colon, > 1 µM and 29.7 µM; with DMS 114 small cell lung, > 1 µM and 27.6 µM; in the experiment on HOP-18 NSCLC, > 1 µM and 31.3 µM; in the experiment with M14 melanoma, > 1 µM and 27.6 µM. For the same molecule, the TGI in the experiment on SK-OV-3 ovarian was greater than 100 µM; with U251 CNS, > 1 µM and 52.9 µM; in the experiment on UACC-62 melanoma it was > 1 µM and 28.9 µM.

Consider `COc1ccc2c(c1)C(=O)c1ccc(OC)cc1C2=S`, for which the TGI with A549 NSCLC, with COLO 205 colon, in the experiment on DMS 114 small cell lung, in the experiment with HOP-18 NSCLC, in the experiment on M14 melanoma and in the experiment with SK-OV-3 ovarian was greater than 100 µM throughout. Moreover, the figures for the TGI in the experiment with U251 CNS and with UACC-62 melanoma were 61.7 µM and greater than 100 µM, respectively.

Consider `CCCCCCCCCCCCCCCC(=O)OCC1OC(n2cc(F)c(=O)[nH]c2=O)C(N)C(O)C1O` (stereo not given), for which the TGI was found to be 33.1 µM in the experiment on A549 NSCLC; 37.5 µM with CAKI-1 renal; 34 µM in the experiment on COLO 205 colon; 32.8 µM in the experiment on DMS 114 small cell lung; 30.7 µM in the experiment on HOP-18 NSCLC; 32.8 µM with M14 melanoma. In addition, the TGI came out at 45.7 µM with SK-OV-3 ovarian, 32.4 µM in the experiment with U251 CNS and 30 µM with UACC-62 melanoma.

Consider `CC(CN(C)C)/C(=N\Nc1ccccc1)c1ccccc1` (stereo not given), for which the TGI worked out at 2.4 µM with A549 NSCLC; 2.55 µM in the experiment on COLO 205 colon; 20.5 µM with DMS 114 small cell lung; 67.3 µM with HOP-18 NSCLC; 16.8 µM in the experiment with M14 melanoma; 84.1 µM with SK-OV-3 ovarian. For the same molecule, the TGI in the experiment with U251 CNS was determined as 5.88 µM; in the experiment on UACC-62 melanoma, 12.3 µM.

Regarding `O=[N+]([O-])c1ccc(-n2nnc(C3=NCCN3)c2-c2ccccc2)cc1`, the TGI in the experiment on A549 NSCLC, in the experiment with CAKI-1 renal, in the experiment on COLO 205 colon, in the experiment on DMS 114 small cell lung, in the experiment on HOP-18 NSCLC and in the experiment on M14 melanoma was greater than 100 µM in each case. Also, the TGI in the experiment with SK-OV-3 ovarian, in the experiment on U251 CNS and with UACC-62 melanoma was greater than 100 µM in each case.

`O=C1/C(=C/c2ccccc2)CN(C(=O)CCN2CCOCC2)C/C1=C\c1ccccc1`: the TGI in the experiment with A549 NSCLC came to 20.2 µM; with CAKI-1 renal, 23 µM; with COLO 205 colon it was 7.67 µM; in the experiment with DMS 114 small cell lung it was 7.59 µM; in the experiment with HOP-18 NSCLC, 30.4 µM; in the experiment on M14 melanoma, 5.4 µM. For the same molecule, the TGI in the experiment with MCF7 breast turned out to be 6.29 µM; with SK-OV-3 ovarian, 24.2 µM; with U251 CNS, 3.52 µM; in the experiment on UACC-62 melanoma, 3.52 µM.

With `O=S(=O)(/C=C/c1ccc(F)cc1)Cc1ccc(CS(=O)(=O)/C=C/c2ccc(F)cc2)cc1`, the TGI in the experiment on A549 NSCLC, in the experiment on CAKI-1 renal, in the experiment with COLO 205 colon, in the experiment on DMS 114 small cell lung, in the experiment with HOP-18 NSCLC and in the experiment with M14 melanoma was greater than 100 µM throughout. Further, the TGI in the experiment with SK-OV-3 ovarian, in the experiment with U251 CNS and in the experiment with UACC-62 melanoma was greater than 100 µM in each case.

Turning to `COc1ccc(/C=C/c2cc(OC)c(OC)c(OC)c2)cc1`, the TGI is greater than 100 µM in the experiment on A549 NSCLC; 98.4 µM in the experiment on CAKI-1 renal; 11 µM in the experiment on COLO 205 colon; greater than 100 µM in the experiment on DMS 114 small cell lung; greater than 100 µM in the experiment with HOP-18 NSCLC; greater than 100 µM in the experiment with M14 melanoma. Besides, the TGI with SK-OV-3 ovarian was greater than 94.6 µM; in the experiment on U251 CNS, 11.7 µM; with UACC-62 melanoma it was greater than 100 µM.

For the molecule `CSc1nnc(CCC(=O)Nc2c(C)cccc2C)o1`, the TGI in the experiment with A549 NSCLC, with CAKI-1 renal, with COLO 205 colon, with DMS 114 small cell lung, in the experiment on HOP-18 NSCLC and in the experiment with M14 melanoma was greater than 100 µM each time. Further, the TGI with SK-OV-3 ovarian, with U251 CNS and in the experiment with UACC-62 melanoma was greater than 100 µM throughout.

Source of the values: PubChem BioAssay (NCI).
